Like-named read-outs stand apart in the source and are kept apart here.
How the values were obtained:
[1] = test system: human pulmonary artery smooth muscle cells (hPASMC); assay: Measurements of cGMP in human pulmonary artery smooth muscle cells (hPASMC); type: cell-based; details: incubation 15 or 30 min
Method: Human Pulmonary Artery Smooth Muscle Cells (hPASMC) were purchased from Clonetics™ Lonza (Lonza, reference number CC-2581) and cultured in Clonetics™ smooth muscle growth medium (Clonetics™ SmGM™-2 with BulletKit™ growth factor supplements (Lonza, reference number CC-3182) at 37° C. in 500 CO2. Culture medium was replaced each 48 hours. Cells were grown in 75 cm^2 culture plates. 48 h before the experiments, cells were trypsinized (Trypsin kit One ReagentPack™ (CC-5034), Lonza) and plated in 96 well plates precoated with collagen I at 10000 cells per well. 24 h before the experiments culture medium was replaced by serum-reduced (0.5% FBS) medium.
Measurements of intracellular cGMP were performed using the Amersham cGMP EIA System (GE Healthcare, RPN226) following the instructions of the manufacturer. The assay has a sensitivity of 2 fmol cGMP per well. Briefly, incubations were terminated by adding Amersham's lysis buffer 1 and cells left for 10 min under agitation to ensure complete lysis. cGMP in samples was then acetylated using triethylamine and acetic anhydride and determined by a competitive ELISA. The ELISA is based on the competition between acetylated cGMP in cell culture lysates and a peroxidase-labelled cGMP conjugate for limited binding sites on a cGMP specific antiserum immobilized on pre-coated 96 well MTP. cGMP was determined based on a standard curve. […]

[2] = biological target: human phosphodiesterase-5 (PDE5) (Homo sapiens (Human), UniProt O76074); assay: PDE5 assay: formation of 5'GMP from cGMP, PDE5 enzyme isolated from human platelets
Method: Purpose: Evaluation of the effects of compounds of the present invention on the activity of the human phosphodiesterase-5 quantified by measuring the formation of 5′GMP from cGMP using PDE5 enzyme isolated from human platelets.
Thereafter, the reaction is initiated by addition of the enzyme and the mixture is incubated for 60 min at 22° C.
For basal control measurements, the enzyme is omitted from the reaction mixture. Following incubation SPA beads are added. After 20 min at 22° C. under shaking, the amount of [3H]5′GMP is quantified with a scintillation counter (Topcount, Packard).

[3] = test system: phenylephrine-precontracted rat aortic rings; assay: Isometric tension studies on rat aortic rings (relaxation of phenylephrine-precontracted rings); details: for potency and efficacy compared to intact endothelium, in words: L-NAME (FIG. 2C) or mechanical removal of endothelium (FIG. 2D); for EC50 / Emax: Rattus norvegicus
Method: After 1 week of acclimatization, rats were anesthetized. Appropriate depth of anesthesia was determined by the absence of the leg flexor response and the eyelid reflex. Then, the thorax was quickly opened by a midline incision, and the rat was sacrificed by cutting the heart and exsanguination.
Indomethacin (1 μM) was added to the saline solution.
Eligible rings were then washed several times to restore tension to the baseline level.
In some experiments, the entire length of the thoracic aorta was functionally denuded of the endothelial layer by gently scraping the luminal surface with a 1.5 mm glass rod. […] Rings were then washed several times to restore tension to the baseline level.
Indomethacin (1 μM) was added to the saline solution. […] Only vessels with at least 60% relaxation to 1 μM ACh from the tension with 300 nM were eligible.
The preparations were allowed to equilibrate for 60 min in Krebs with high glucose (25 mM) before contraction to a new single concentration of PE (300 nM).
Finally, sodium nitroprusside (0.1 mM) was added, in order to obtain maximum relaxation of arterial rings.
The amount of relaxation (percent values as means±SEM) was quantified as percent relaxation from the tension (plateau) achieved with phenylephrine.
Data are presented as mean±SEM. Statistical analysis of results has been performed by analysis of variance (ANOVA) either parametric or non-parametric (Kruskal-Wallis), followed by Bonferroni test or Dunn tests as appropriate (GraphPad Software Inc, San Diego, CA, USA). Significance was accepted when P<0.05. Non-linear regression was conducted with GraphPad Software).

In the case of CCCOc1ccc(S(=O)(=O)N2CCC(CCO)CC2)cc1-c1nn2c(CCC)c(/C=N/O)c(C)c2c(=O)[nH]1 [Compound 1r, (E)-2-(5-((4-(2-hydroxyethyl)piperidin-1-yl)sulfonyl)-2-propoxyphenyl)-5-methyl-4-oxo-7-propyl-3,4-dihydropyrrolo[2,1-f][1,2,4]triazine-6-carbaldehyde oxime], the “cGMP in hPASMC, activity compared to sildenafil” value [1] is reported as “significantly higher activity as compared to the reference inhibitor sildenafil”, the IC50 [2] is reported as 0.16 nM and the “potency and efficacy compared to intact endothelium, in words” value [3] is reported as “largely impaired”. For the same molecule, the EC50 ([3]; High Glucose (25 mM)) was 2.79 nM, the Emax ([3]; High Glucose (25 mM)) was 51% and the EC50 ([3]; Intact Endothelium (E+)) was 0.0074 nM. The Emax ([3]; Intact Endothelium (E+)) was 91.9%, the EC50 ([3]; L-NAME (100 μM)) was 0.935 nM and the Emax ([3]; L-NAME (100 μM)) was 60.4%. For the same molecule, the EC50 ([3]; Without Endothelium) was 5.94 nM, the Emax ([3]; Without Endothelium) was 39.8% and the “relaxation of rat aortic rings, comparison in words” value (shortened to “relaxation of rat aortic rings”) ([3]; intact endothelium (FIG. 2A)) was “more potent and effective than Sildenafil”.

Molecule CCCc1c(/C=N/O)c(C)c2c(=O)[nH]c(-c3cc(S(=O)(=O)N4CCN(C)CC4)ccc3OCC)nn12 [Compound 1a, (E)-2-(2-ethoxy-5-((4-methylpiperazin-1-yl)sulfonyl)phenyl)-5-methyl-4-oxo-7-propyl-3,4-dihydropyrrolo[2,1-f][1,2,4]triazine-6-carbaldehyde oxime] has an IC50 ([2]; human platelet PDE5) of 0.25 nM.

“(E)-2-(4-(4-ethoxy-3-(6-((methoxyimino)methyl)-5-methyl-4-oxo-7-propyl-3,4-dihydropyrrolo [1,2-f][1,2,4]triazin-2-yl)phenylsulfonyl)piperazin-1-yl)ethyl nitrate [Compound 1ai]” was tested, and the “% inhibition at 5.0E−09M” value [2] was 0.3%.

Molecule CCCOc1ccc(S(=O)(=O)N2CCN(C)CC2)cc1-c1nn2c(CCC)c(/C=N/OC)c(C)c2c(=O)[nH]1 [Compound 1o, (E)-5-methyl-2-(5-((4-methylpiperazin-1-yl)sulfonyl)-2-propoxyphenyl)-4-oxo-7-propyl-3,4-dihydropyrrolo[2,1-f][1,2,4]triazine-6-carbaldehyde O-methyl oxime] has an IC50 ([2]; human platelet PDE5) of 0.53 nM.

CCCOc1ccc(S(=O)(=O)N2CCC(CCO[N+](=O)[O-])CC2)cc1-c1nn2c(CCC)c(/C=N/O)c(C)c2c(=O)[nH]1 [Compound 1v, (E)-2-(1-((3-(6-((hydroxyimino)methyl)-5-methyl-4-oxo-7-propyl-3,4-dihydropyrrolo[2,1-f][1,2,4]triazin-2-yl)-4-propoxyphenyl)sulfonyl)piperidin-4-yl)ethyl nitrate] was tested, and the “cGMP in hPASMC, activity compared to sildenafil” value [1] was “significantly higher activity as compared to the reference inhibitor sildenafil”, the “potency and efficacy compared to intact endothelium, in words” value [3] was “superior” and the “relaxation of rat aortic rings” value ([3]; intact endothelium (FIG. 2A)) was “more potent and effective than Sildenafil”. For the same molecule, the “relaxation of rat aortic rings” value ([3]; pre-exposed to high glucose 25 mM (FIG. 2B)) was “clearly more potent and efficacious than 1r”.

With CCCc1c(/C=N/O)c(C)c2c(=O)[nH]c(-c3cc(S(=O)(=O)N4CCN(CCCO)CC4)ccc3OCC)nn12 [Compound 1an, (E)-2-(2-ethoxy-5-(4-(3-hydroxypropyl)piperazin-1-ylsulfonyl)phenyl)-5-methyl-4-oxo-7-propyl-3,4-dihydropyrrolo[1,2-f][1,2,4]triazine-6-carbaldehyde oxime] the IC50 ([2]; human platelet PDE5) was 0.42 nM.

With “(E)-2-(2-ethoxy-5-(4-(2-hydroxyethyl)piperidin-1-ylsulfonyl)phenyl)-5-methyl-4-oxo-7-propyl-3,4-dihydropyrrolo[1,2-f][1,2,4]triazine-6-carbaldehyde oxime [Compound 1al]” the “% inhibition at 5.0E−09M” value ([2]; 5.0E−09M, percent inhibition of control enzyme activity) was 84.9% and the IC50 ([2]; human platelet PDE5) was 0.48 nM.
